Measured values as given in the Kinase Knowledgebase extract (Sharma et al. 2016).

Key:
PIK3CG (human) = PIK3CG (human) (UniProt P48736); test: Assessment of PI3KCG Kinase Activity
PIK3CA (human) = PIK3CA (human) (UniProt P42336); test: Assessment of PI3KCA Kinase Activity
PIK3CD (Human) = PIK3CD (Human) (UniProt O00329); test: Assessment of PI3KCD Kinase Activity
PIK3CB (Human) = PIK3CB (Human) (UniProt P42338); test: Assessment of PI3KCB Kinase Activity
PIK3CB (Human), sequence (P42338 whole entry, looked up): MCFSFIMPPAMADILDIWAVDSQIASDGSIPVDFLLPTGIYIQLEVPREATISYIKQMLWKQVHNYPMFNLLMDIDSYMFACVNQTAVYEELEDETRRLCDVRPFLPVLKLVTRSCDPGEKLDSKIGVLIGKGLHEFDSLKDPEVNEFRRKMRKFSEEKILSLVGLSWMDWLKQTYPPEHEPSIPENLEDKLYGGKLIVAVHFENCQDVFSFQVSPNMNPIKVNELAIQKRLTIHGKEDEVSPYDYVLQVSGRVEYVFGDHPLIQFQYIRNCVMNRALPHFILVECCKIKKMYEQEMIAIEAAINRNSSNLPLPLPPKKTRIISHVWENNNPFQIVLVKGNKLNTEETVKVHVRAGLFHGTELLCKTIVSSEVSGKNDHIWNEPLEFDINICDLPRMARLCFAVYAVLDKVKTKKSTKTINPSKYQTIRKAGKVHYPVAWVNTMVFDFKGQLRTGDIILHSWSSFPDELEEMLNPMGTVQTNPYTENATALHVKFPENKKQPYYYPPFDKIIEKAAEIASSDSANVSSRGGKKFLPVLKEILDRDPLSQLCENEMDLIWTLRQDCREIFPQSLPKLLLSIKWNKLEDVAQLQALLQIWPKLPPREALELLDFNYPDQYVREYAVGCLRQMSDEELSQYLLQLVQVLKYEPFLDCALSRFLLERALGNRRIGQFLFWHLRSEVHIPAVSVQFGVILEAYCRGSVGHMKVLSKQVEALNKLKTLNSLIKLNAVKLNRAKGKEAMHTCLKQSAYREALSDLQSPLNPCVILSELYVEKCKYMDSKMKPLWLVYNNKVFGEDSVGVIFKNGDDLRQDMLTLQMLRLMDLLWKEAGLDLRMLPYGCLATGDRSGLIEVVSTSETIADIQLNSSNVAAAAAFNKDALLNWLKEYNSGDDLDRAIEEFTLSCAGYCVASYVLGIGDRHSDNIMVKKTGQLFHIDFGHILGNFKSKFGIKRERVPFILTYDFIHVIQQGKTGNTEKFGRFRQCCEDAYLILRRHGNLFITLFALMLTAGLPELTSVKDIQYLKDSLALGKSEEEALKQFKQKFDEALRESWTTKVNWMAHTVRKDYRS

PIK3CD (Human), sequence (O00329 whole entry, looked up): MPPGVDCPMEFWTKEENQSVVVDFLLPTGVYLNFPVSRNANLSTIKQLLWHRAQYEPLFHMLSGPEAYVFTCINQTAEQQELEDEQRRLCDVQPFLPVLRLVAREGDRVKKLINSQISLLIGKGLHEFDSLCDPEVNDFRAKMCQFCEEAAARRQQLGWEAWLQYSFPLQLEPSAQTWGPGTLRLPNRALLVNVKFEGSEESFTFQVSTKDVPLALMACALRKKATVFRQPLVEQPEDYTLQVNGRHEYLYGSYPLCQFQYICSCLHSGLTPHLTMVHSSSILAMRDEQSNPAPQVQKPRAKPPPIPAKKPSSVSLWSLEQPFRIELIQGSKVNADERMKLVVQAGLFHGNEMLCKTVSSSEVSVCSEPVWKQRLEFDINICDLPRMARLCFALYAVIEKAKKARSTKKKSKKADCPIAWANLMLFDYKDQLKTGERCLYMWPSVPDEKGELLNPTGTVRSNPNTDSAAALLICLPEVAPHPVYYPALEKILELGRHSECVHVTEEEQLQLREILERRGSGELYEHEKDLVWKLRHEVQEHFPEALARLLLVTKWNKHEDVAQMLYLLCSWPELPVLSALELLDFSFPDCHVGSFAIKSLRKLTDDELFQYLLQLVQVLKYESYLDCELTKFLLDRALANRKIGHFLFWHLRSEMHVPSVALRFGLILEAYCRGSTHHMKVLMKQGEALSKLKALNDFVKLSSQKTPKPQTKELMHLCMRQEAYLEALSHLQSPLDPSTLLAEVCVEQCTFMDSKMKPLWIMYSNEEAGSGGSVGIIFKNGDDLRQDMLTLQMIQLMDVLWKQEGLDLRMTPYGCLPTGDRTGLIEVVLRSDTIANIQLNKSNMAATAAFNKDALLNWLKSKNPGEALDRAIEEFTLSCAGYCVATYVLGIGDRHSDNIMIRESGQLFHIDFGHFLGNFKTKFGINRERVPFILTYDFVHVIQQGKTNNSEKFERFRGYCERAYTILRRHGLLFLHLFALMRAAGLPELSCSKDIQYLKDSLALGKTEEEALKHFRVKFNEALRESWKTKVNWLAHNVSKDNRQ
PIK3CG (human), sequence (P48736 whole entry, looked up): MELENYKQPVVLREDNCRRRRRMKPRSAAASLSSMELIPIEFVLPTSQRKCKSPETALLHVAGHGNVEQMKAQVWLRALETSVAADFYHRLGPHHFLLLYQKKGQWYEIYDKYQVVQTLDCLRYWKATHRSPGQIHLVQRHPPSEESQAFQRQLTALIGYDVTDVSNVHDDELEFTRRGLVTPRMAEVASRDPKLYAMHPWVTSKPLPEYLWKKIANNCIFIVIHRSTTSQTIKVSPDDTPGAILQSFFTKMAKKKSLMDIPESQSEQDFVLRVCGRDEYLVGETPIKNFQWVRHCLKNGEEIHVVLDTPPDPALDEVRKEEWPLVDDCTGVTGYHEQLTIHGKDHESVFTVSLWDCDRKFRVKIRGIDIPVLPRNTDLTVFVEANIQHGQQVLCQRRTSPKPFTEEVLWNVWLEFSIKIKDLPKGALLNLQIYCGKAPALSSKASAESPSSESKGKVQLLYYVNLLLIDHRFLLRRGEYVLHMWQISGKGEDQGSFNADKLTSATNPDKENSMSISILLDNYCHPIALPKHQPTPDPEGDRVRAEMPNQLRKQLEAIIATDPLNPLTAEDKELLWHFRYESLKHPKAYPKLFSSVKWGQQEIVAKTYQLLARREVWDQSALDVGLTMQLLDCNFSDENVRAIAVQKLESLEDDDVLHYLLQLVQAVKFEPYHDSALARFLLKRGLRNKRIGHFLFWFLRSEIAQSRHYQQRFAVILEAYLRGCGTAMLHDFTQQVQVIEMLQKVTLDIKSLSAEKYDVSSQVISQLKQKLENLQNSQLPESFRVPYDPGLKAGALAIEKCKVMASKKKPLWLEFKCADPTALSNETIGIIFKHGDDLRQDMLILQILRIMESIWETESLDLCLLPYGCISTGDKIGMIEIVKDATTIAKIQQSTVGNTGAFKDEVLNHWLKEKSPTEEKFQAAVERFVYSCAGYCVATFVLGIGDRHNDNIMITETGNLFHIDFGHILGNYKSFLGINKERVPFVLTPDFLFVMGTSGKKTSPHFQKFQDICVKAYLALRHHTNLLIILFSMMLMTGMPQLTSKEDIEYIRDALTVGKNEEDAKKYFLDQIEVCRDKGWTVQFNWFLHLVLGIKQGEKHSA
PIK3CA (human), sequence (P42336 whole entry, looked up): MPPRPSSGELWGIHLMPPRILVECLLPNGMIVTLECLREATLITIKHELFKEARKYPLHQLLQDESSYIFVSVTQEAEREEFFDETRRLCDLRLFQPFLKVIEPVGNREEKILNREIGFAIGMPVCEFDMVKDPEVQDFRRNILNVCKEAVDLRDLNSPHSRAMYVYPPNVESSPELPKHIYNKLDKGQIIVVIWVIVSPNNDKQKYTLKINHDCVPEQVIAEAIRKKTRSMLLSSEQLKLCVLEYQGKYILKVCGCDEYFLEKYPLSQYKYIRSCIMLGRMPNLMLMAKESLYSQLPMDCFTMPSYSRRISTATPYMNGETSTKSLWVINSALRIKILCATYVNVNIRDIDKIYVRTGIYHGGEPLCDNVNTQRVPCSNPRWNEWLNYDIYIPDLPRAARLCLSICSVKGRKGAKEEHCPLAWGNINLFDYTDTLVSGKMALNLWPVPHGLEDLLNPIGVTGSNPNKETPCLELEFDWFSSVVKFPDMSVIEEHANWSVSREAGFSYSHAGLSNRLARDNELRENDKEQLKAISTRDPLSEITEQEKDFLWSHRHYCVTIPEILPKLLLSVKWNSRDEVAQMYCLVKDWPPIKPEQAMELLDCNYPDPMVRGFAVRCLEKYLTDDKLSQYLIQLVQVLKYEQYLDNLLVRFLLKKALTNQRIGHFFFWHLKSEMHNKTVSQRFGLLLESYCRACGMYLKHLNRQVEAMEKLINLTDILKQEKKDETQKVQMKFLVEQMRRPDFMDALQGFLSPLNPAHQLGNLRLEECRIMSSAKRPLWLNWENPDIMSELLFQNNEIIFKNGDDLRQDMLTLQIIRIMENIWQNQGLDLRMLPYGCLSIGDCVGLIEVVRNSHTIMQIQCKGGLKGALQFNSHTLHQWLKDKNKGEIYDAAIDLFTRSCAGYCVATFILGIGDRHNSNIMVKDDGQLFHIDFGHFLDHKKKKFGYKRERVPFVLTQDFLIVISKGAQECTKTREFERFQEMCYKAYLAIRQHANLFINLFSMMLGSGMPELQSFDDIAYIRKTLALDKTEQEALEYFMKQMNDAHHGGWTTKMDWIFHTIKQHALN

Structure (SMILES)	IC50 (PIK3CG (human))	IC50 (PIK3CA (human))	IC50 (PIK3CD (Human))	IC50 (PIK3CB (Human))
Cc1ccccc1-n1c(Cn2nc(-c3ccc4nc(N)ncc4c3)c3c(N)ncnc32)cc2cccc(C)c2c1=O	< 100 nM	< 100 nM	< 100 nM	
CC(=O)Nc1nc2ccc(-c3nn(Cc4cc5cccc(Cl)c5c(=O)n4C(C)C)c4ncnc(N)c34)cc2s1		< 100 nM	< 100 nM	< 100 nM
Nc1ncnc2c1c(-c1cc(O)cc(F)c1)nn2Cc1cc2cccc(Cl)c2c(=O)n1C1CC1	< 100 nM	< 100 nM	< 100 nM	< 100 nM
CNC(=O)Nc1nc2ccc(-c3nn(Cc4cc5cccc(C)c5c(=O)n4-c4ccccc4C)c4ncnc(N)c34)cc2s1	< 100 nM	< 100 nM	< 100 nM	
CC(=O)Nc1nc2ccc(-c3nn(Cc4cc5cccc(C)c5c(=O)n4C4CC4)c4ncnc(N)c34)cc2s1		< 100 nM	< 100 nM	< 100 nM
Cc1ccccc1-n1c(Cn2nc(-c3ccc(F)c(O)c3)c3c(N)ncnc32)cc2ccccc2c1=O	< 100 nM		< 100 nM	
CCc1ccccc1-n1c(Cn2nc(-c3cccc(O)c3)c3c(N)ncnc32)nc2scc(C)c2c1=O	< 100 nM		< 100 nM	
Cc1csc2nc(Cn3nc(I)c4c(N)ncnc43)n(-c3ccccc3C(C)C)c(=O)c12	< 100 nM		< 100 nM	
Cc1ccccc1-n1c(Cn2nc(C=CC(N)=O)c3c(N)ncnc32)cc2cccc(C)c2c1=O	< 100 nM		< 100 nM	
CC(=O)Nc1nc2ccc(-c3nn(Cc4cc5cccc(C)c5c(=O)n4C(C)C)c4ncnc(N)c34)cc2s1		< 100 nM	< 100 nM	
CCc1ccccc1-n1c(Cn2nc(Br)c3c(N)ncnc32)nc2scc(C)c2c1=O	< 100 nM		< 100 nM	
CC(=O)Nc1nc2ccc(-c3nn(Cc4cc5cccc(Cl)c5c(=O)n4C4CC4)c4ncnc(N)c34)cc2s1		< 100 nM	< 100 nM	< 100 nM
Cc1ccccc1-n1c(Cn2nc(-c3cccc(O)c3)c3c(N)ncnc32)cc2nccc(C)c2c1=O	< 100 nM		< 100 nM	
Cc1cccc2cc(Cn3nc(-c4cc(O)cc(F)c4)c4c(N)ncnc43)n(-c3ccccc3F)c(=O)c12	< 100 nM		< 100 nM	
CC(=O)Nc1nc2ccc(-c3nn(Cc4cc5cccc(C)c5c(=O)n4C)c4ncnc(N)c34)cc2s1		< 100 nM	< 100 nM	
Cc1ccccc1-n1c(C(C)Nc2ncnc3[nH]cnc23)cc2cccc(C)c2c1=O (stereo not drawn)	< 100 nM		< 100 nM	
Cc1cccc2cc(Cn3nc(-c4ccc(Cl)c(O)c4)c4c(N)ncnc43)n(-c3ccccc3F)c(=O)c12	< 100 nM		< 100 nM	
Cc1ccccc1-n1c(Cn2nc(-c3ccc(F)c(O)c3)c3c(N)ncnc32)cc2cccc(F)c2c1=O	< 100 nM		< 100 nM	
Cc1ccccc1-n1c(Cn2nc(-c3ccc(O)c(F)c3)c3c(N)ncnc32)cc2cccc(C)c2c1=O	< 100 nM		< 100 nM	
CCn1c(Cn2nc(-c3ccc4nc(NC(C)=O)sc4c3)c3c(N)ncnc32)cc2cccc(C)c2c1=O	< 100 nM	< 100 nM	< 100 nM	
Cc1ccccc1-n1c(Cn2nc(-c3ccc(F)c(O)c3)c3c(N)ncnc32)cc2cccc(C)c2c1=O	< 100 nM		< 100 nM	
Cc1ccccc1-n1c(Cn2nc(C)c3c(N)ncnc32)nc2scc(C)c2c1=O	< 100 nM		< 100 nM	
Cc1cccc2cc(Cn3nc(-c4cc(O)cc(F)c4)c4c(N)ncnc43)n(C3CC3)c(=O)c12	< 100 nM		< 100 nM	< 100 nM
Cc1cccc2cc(Cn3nc(C#C[C@@H](C)O)c4c(N)ncnc43)n(-c3ccccc3C(C)C)c(=O)c12	< 100 nM		< 100 nM	
Cc1csc2nc(Cn3nc(C#C[C@@H](C)O)c4c(N)ncnc43)n(-c3ccccc3F)c(=O)c12	< 100 nM		< 100 nM	
Cc1cccnc1-n1c(Cn2nc(-c3cc(O)cc(F)c3)c3c(N)ncnc32)cc2cccc(C)c2c1=O	< 100 nM		< 100 nM	

Structure (SMILES)	IC50 (PIK3CG (human))	IC50 (PIK3CA (human))	IC50 (PIK3CD (Human))	IC50 (PIK3CB (Human))
Cc1cccc2cc(Cn3nc(-c4cccc(O)c4)c4c(N)ncnc43)n(C(C)C)c(=O)c12	< 100 nM		< 100 nM	
Cc1ccccc1-n1c(Cn2nc(-c3ccc4cc[nH]c4c3)c3c(N)ncnc32)nc2scc(C)c2c1=O	< 100 nM		< 100 nM	
Cc1ccccc1-n1c(Cn2nc(-c3cccc(O)c3)c3c(N)ncnc32)cc2cccc(C)c2c1=O	< 100 nM		< 100 nM	
Cc1ccccc1-n1c(Cn2nc(C=C3SC(=O)NC3=O)c3c(N)ncnc32)cc2cccc(C)c2c1=O	< 100 nM		< 100 nM	
Cc1cccc2cc(Cn3nc(C=C4SC(=O)NC4=O)c4c(N)ncnc43)n(-c3ccccc3F)c(=O)c12	< 100 nM		< 100 nM	
Cc1cccc2cc(Cn3nc(I)c4c(N)ncnc43)n(C3CC3)c(=O)c12	< 100 nM		< 100 nM	
CC(=O)Nc1nc2ccc(-c3nn(Cc4cc5cccc(F)c5c(=O)n4C(C)C)c4ncnc(N)c34)cc2s1		< 100 nM	< 100 nM	
CCc1ccccc1-n1c(Cn2nc(-c3cc(O)cc(F)c3)c3c(N)ncnc32)cc2cccc(C)c2c1=O	< 100 nM		< 100 nM	
CC(=O)Nc1nc2ccc(-c3nn(Cc4cc5cccc(C)c5c(=O)n4-c4cccc(F)c4)c4ncnc(N)c34)cc2s1	< 100 nM		< 100 nM	
Cc1ccccc1-n1c(Cn2nc(-c3cc(O)cc(F)c3)c3c(N)ncnc32)cc2nccc(C)c2c1=O	< 100 nM		< 100 nM	
COc1ccccc1-n1c(Cn2nc(-c3cc(O)cc(F)c3)c3c(N)ncnc32)cc2cccc(C)c2c1=O	< 100 nM		< 100 nM	
Cc1ccccc1-n1c(Cn2nc(-c3ccc(F)c(O)c3)c3c(N)ncnc32)nc2scc(C)c2c1=O	< 100 nM		< 100 nM	
CC(=O)Nc1nc2ccc(-c3nn(Cc4cc5cccc(C)c5c(=O)n4C4CCC4)c4ncnc(N)c34)cc2s1		< 100 nM	< 100 nM	
Cc1ccccc1-n1c(Cn2nc(-c3ccc4nc(N)ccc4c3)c3c(N)ncnc32)cc2cccc(C)c2c1=O	< 100 nM		< 100 nM	
Cc1ccccc1-n1c(Cn2nc(-c3cccc(O)c3)c3c(N)ncnc32)cc2cccc(F)c2c1=O	< 100 nM		< 100 nM	
Cc1ccccc1-n1c(Cn2nc(Br)c3c(N)ncnc32)cc2cccc(C)c2c1=O	< 100 nM		< 100 nM	
CCc1ccccc1-n1c(Cn2nc(-c3cccc(O)c3)c3c(N)ncnc32)cc2cccc(C)c2c1=O	< 100 nM		< 100 nM	
Cc1cccc2cc(Cn3nc(-c4cc(O)cc(F)c4)c4c(N)ncnc43)n(-c3ccccc3)c(=O)c12	< 100 nM		< 100 nM	
Cc1ccccc1-n1c(Cn2nc(-c3ccc(Cl)c(O)c3)c3c(N)ncnc32)cc2ccccc2c1=O	< 100 nM		< 100 nM	
Cc1cccc2cc(Cn3nc(-c4cc(O)cc(F)c4)c4c(N)ncnc43)n(-c3ccccc3O)c(=O)c12	< 100 nM		< 100 nM	
Cc1cccc2cc(Cn3nc(-c4cn[nH]c4)c4c(N)ncnc43)n(-c3ccccc3C(C)C)c(=O)c12	< 100 nM		< 100 nM	
Cc1ccccc1-n1c(Cn2nc(C3=CCC4OC(N)=NC4=C3)c3c(N)ncnc32)cc2cccc(C)c2c1=O (stereo not drawn)	< 100 nM		< 100 nM	
Cc1cccc2cc(Cn3nc(I)c4c(N)ncnc43)n(-c3ccccc3C(C)C)c(=O)c12	< 100 nM		< 100 nM	
Cc1ccccc1-n1c(Cn2nc(-c3ccc(O)c(Cl)c3)c3c(N)ncnc32)cc2cccc(C)c2c1=O	< 100 nM		< 100 nM	
CC(=O)Nc1nc2ccc(-c3nn(Cc4cc5ccccc5c(=O)n4-c4ccccc4C)c4ncnc(N)c34)cc2s1	< 100 nM		< 100 nM	
Cc1ccccc1-n1c(Cn2nc(-c3cnc4[nH]ccc4c3)c3c(N)ncnc32)cc2cccc(C)c2c1=O	< 100 nM		< 100 nM	
